Source: patent publication US11421145B2, “Oil recovery methods using a formulation containing an unsaturated zwitterionic surfactant and a polymer” (King Fahd University of Petroleum and Minerals, priority 2019, dated 2022)
Entries after “also recorded” stand apart in the source; their conditions may differ.

Tests used:
[1] = Long-term thermal stability: aging at 90° C. for 15 days, phase behavior, NMR, FTIR; type: physicochemical
Method: The short-term thermal stability of the unsaturated surfactant was assessed using thermogravimetric analysis (TGA). The thermal stability for a longer period (2 weeks) was determined by FTIR and NMR. The synthesized unsaturated surfactant was dried and heated at 10° C./min in an SDT-Q600 instrument (TA Instruments) from room temperature to 600° C. under nitrogen atmosphere. The thermal stability for a longer period was determined by aging 1 wt % aqueous solution of the unsaturated surfactant at 90° C. for 15 days. FTIR, ^13C NMR, and ^1H NMR were used to identify the structural changes in the unsaturated surfactant after aging. A Nicolet 6700 spectrometer was used for FTIR analysis of the unsaturated surfactant, while a JEOL 500 MHz spectrometer was used for obtaining the NMR spectra.
For long-term thermal stability, 1 wt % surfactant solution was aged in sealed aging tubes at 90° C. for 15 days. […] The two methyl carbons directly attached to the quaternary nitrogen [—CH2—N^+—(CH3)2—CH2—] were detected at δ=50.8 ppm and the two methylene carbons directly attached to quaternary nitrogen [—CH2—N^+—(CH3)2—CH2—] at δ=62.2 and δ=62.7 ppm. The olefinic carbons in the unsaturated surfactant tail appeared at δ=129.6 and δ=130.0 ppm. The amide carbonyl group [—CH2—C═O—NH] resonated at δ=175.1 ppm. The peaks appearing in the ^13C-NMR spectra of the sample agreed with the proposed structure of the unsaturated surfactant. […] The carbons of two methyl groups connected with the central positively charged nitrogen [—CH2—N^+(CH3)2—CH2—] still present in the aged sample and were detected at δ=50.8 ppm. Similarly, the carbons of two methylene groups attached to the central positively charged nitrogen [—CH2—N^+(CH3)2—CH2—] were also detected at δ=62.2 and δ=62.7 ppm. […] In the ^1H-NMR spectrum of the unsaturated surfactant before aging (FIG. 5), the terminal methyl protons [—(CH2)n—CH3)] was detected at δ=0.84 ppm and the methylene protons [—(CH2)n—CH3)] in the unsaturated surfactant tail resonated at δ=1.23 ppm. […]

[2] = Compatibility of surfactant with AM-AMPS copolymer; type: physicochemical; conditions: commercially available AM-AMPS copolymer
Method: The interactions of the synthesized unsaturated surfactant with a commercially available copolymer of acrylamide and 2-acrylamido-2-methylpropane sulfonic acid (AM-AMPS) were evaluated using compatibility and rheological tests.

Compound: CCCCCCCC/C=C\CCCCCCCC(=O)NCCC[N+](C)(C)CCCS(=O)(=O)[O-] [unsaturated surfactant, 3-(N-oleamidopropyl-N,N-dimethylammonium) propane sulfonate]
- appearance of solution after aging ([1]; 1 wt % surfactant solution, sealed tubes, 90° C., 15 days): remained clear and there was no phase separation or precipitation
- long-term thermal stability ([1]; 90° C., 15 days, phase behavior, TGA, FTIR, NMR): excellent long-range thermal stability
- structure after aging (1H/13C NMR, FTIR) ([1]; aged 15 days at 90° C.): survival of original structure; also recorded: no structure degradation
- compatibility with acrylamide copolymer [2]: excellent compatibility
